The EC50 is the concentration giving half of the maximal effect.

For one test, the target named is cyclophilin A (CYPA) (Homo sapiens, UniProt P62937). Briefly: CYPA-compound binary complex formation by SPR. Conditions: read-out: CYPA Binding Affinity. A digest of the protocol: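 Steady-state fit of SPR responses gave binding affinity. Analyte series: 50 μM downward, 2-fold, 10 points, running buffer HBS-P+ (0.05% Tween20, pH7.4, 2% DMSO), 60 s on/60 s off. Surface: biotinylated CypA-Avi captured at 4 μg/ml against a reference cell, regenerated with NaOH/guanidine.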
In general terms: Surface plasmon resonance follows binding to a sensor surface in real time, without labels.

In test [1] the target is T1, BRAF-GTP-KRAS-G12C complex (Homo sapiens, UniProt P01116+P62937, G12C).
T1 construct: 50 nM of His6-KRas G12C-GTP (1-169); 500 nM of tagless CypA (1-165)
Briefly: KRAS-BRAF complex disruption through competition with CYPA-compound by TR-FRET. Conditions: biochemical BRAF-KRAS G12C-GTP disruption assay EC50, with CYPA. A digest of the protocol:
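Compound-driven loss of KRAS–BRAF RBD TR-FRET signal, Eu-anti-His/APC-anti-GST pair (10/50 nM, 1.5 h), following a 3 h room-temperature preincubation of 50 nM His6-KRAS G12C-GTP and 500 nM CypA in 25 mM Hepes pH 7.3 buffer. EC50 by 4-parameter fit. Variants used wild-type KRAS in place of G12C or no CypA.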

A further test deals with pERK in H358 cells. Briefly: pERK inhibition in H358 cells. The class given is cell-based, human. Conditions: 4 hours treatment, read-out: Cellular pERK inhibition. In a few lines:
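Human lung cancer H358 cells in RPMI/10% FBS were exposed to compound or DMSO for 4 h. Fixed and permeabilized cells were stained overnight at 4 C with anti-phospho-ERK1/2 (Thr202/Tyr204). Near-infrared imaging read the pERK signal at 800 nm, with DRAQ5 at 700 nm.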

For test [2], the target named is T2, BRAF-GTP-KRAS-G12C complex (Homo sapiens, UniProt P01116, G12C).
T2 construct: 50 nM of His6-KRas G12C-GTP (1-169)
Briefly: KRAS-BRAF complex disruption TR-FRET without CYPA (presenter dependence). It counts as biochemical. On the procedure: In this example, TR-FRET was used to measure the compound-facilitated disruption of a KRAS-BRAF complex. A mixture of tagless Cyclophilin A, His6-KRAS G12C-GMP-PNP, and GST-BRAF RAS binding domain was added to a 384-well assay plate containing compounds of the invention and incubated for 3 hours. A mixture of Anti-His Eu-W1024 and anti-GST allophycocyanin was then added and the reaction was incubated for an additional 1.5 hours. TR-FRET signal was read on an EnVision microplate reader (Perkin Elmer, Ex 320 nm, Em 665/615 nm). Compounds that facilitate disruption of a KRAS_BRAF complex were identified as those eliciting a decrease in the TR-FRET ratio relative to DMSO control wells. To determine the presenter-dependence of the compound-mediated KRAS-BRAF complex disruption, Cyclophilin A was left out of the initial incubation (see Table 5). To determine G12C specificity of the compound-mediated KRAS-BRAF complex disruption, wild-type KRAS was used instead of G12C KRAS (see Table 5).
Reagents and Instrument • Tagless CYPA; 519 μM in PBS buffer, pH 7.4 • GST BRAF; 110 μM in PBS buffer, pH 7.4 • His6-KRASG12C-GMP-PNP; 50 μM in PBS buffer, pH 7.4 • His6-KRASWT-GMP-PNP; 40 μM in PBS buffer, pH 7.4 • Anti-His Eu-W1024 (LANCE® Eu-W1024; Perkin Elmer) • Anti-GST allophycocyanin (Anti-GST IgG conjugated to SureLight®-Allophycocyanin; Perkin Elmer; Product Number AD0059G) • Test compounds, 10 mM in 100% DMSO • EnVision (Perkin Elmer) • Combi MultiDrop liquid dispenser with 8-channel small volume cassette • 384-well ProxiPlate (black)
Experimental Protocol • 1. Use Mosquito to dispense 100 nL/well of compounds (varying concentration in […]) into 384-well black ProxiPlate to make assay-ready-plate (ARP). • 2. Make assay buffer containing 25 mM Hepes pH 7.3, 100 mM NaCl, 5 mM MgCl2, 0.05% BSA, and 0.002% Tween-20. • 3. Make PRE-MIX A: delivers final concentrations of 50 nM of His6-KRas G12C-GTP (1-169) and 500 nM of tagless CypA (1-165) in assay buffer. • a. […] Read on EnVision (Ex: 320 nm; Em1: 615 nm; Em2: 665 nm). • 8. […]
On the technique in general: Time-resolved FRET reads energy transfer from a long-lived donor to a nearby acceptor.

As for `CC1COC(=O)C2CCCN(N2)C(=O)C(NC(=O)C(C(C)C)N(C)C(=O)C2CN(C(=O)CCl)C2)Cc2cc(O)cc(c2)-c2ccc3c(c2)c(cn3CC2COC2)C1` (mixture of isomers) [Compound 226], the Kd on cyclophilin A (CYPA) is at most 5 µM. Moreover, the EC50 in test [1] is at most 0.5 µM. Moreover, the IC50 in the test with pERK in H358 cells is 1 to 10 µM; in test [2], over 30 µM.

For `CC1COC(=O)C2CCCN(N2)C(=O)C(NC(=O)C(C(C)C)N(C)C(=O)C2CN(C(=O)CCl)C2)Cc2cc(O)cc(c2)-c2ccc3c(S(C)(=O)=O)cn(c3c2)C1` (single isomer, unassigned) [Compound 110], the Kd at cyclophilin A (CYPA) was at most 5 µM. The EC50 in test [1] was at most 0.5 µM. Also, the IC50 in the test with pERK in H358 cells is 1 to 10 µM; in test [2] it was over 30 µM.

The values above are taken from patent US20240139185A1, “COMPOUNDS THAT PARTICIPATE IN COOPERATIVE BINDING AND USES THEREOF” (Revolution Medicines, Inc., priority 2018, published 2024).
